These are literature values, as cited in patent publication US20240350500A1, “PLK1 INHIBITOR IN COMBINATION WITH ANTI-ANGIOGENICS FOR TREATING METASTATIC CANCER” (CARDIFF ONCOLOGY, INC., priority 2022, published 2024).

Where two headings read alike, the source gives them in different places.

One data set deals with PLK1 (Homo sapiens, UniProt P53350). Conditions: including other PLK members.
Data set [1] relates to disseminated models of AML. To be noted: in combination with cytarabine.
Data set [2] deals with cell lines, both from solid as well as hematologic tumors.
The test system of data set [3] is HT29 human colon adenocarcinoma xenografts. To be noted: in combination with irinotecan, compared to each agent alone.
The conditions of data set [4]: rodent and nonrodent species.
Data set [5] relates to AML. To be noted: intravenously in combination with LDAC, compared with LDAC alone; treatment naïve AML unsuitable for induction therapy.
The subject of data set [6] is AML. Conditions: combination with LDAC.
Data set [7] deals with metastatic colorectal cancer. To be noted: 2nd line.
Where [8] appears, read: bev naïve (without prior bevacizumab).

Chain of PLK1 (P53350 whole entry): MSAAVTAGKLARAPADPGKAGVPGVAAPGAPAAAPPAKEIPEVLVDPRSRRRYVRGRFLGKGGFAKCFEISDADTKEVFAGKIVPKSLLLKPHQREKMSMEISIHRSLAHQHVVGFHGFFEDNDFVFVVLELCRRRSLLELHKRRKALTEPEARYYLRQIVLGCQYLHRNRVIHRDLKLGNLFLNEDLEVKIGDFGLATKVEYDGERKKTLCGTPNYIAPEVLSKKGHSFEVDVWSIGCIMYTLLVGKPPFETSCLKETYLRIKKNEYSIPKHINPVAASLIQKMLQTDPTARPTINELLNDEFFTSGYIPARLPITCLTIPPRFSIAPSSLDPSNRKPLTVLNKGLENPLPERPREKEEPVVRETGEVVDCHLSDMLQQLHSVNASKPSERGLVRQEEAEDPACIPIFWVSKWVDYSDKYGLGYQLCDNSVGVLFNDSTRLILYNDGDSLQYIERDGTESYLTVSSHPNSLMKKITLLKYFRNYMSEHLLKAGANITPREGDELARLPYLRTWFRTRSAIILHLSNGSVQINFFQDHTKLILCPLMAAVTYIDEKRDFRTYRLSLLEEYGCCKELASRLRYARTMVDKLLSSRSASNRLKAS

`CN1CCN(c2ccc(OC(F)(F)F)c(Nc3ncc4c(n3)-c3c(c(C(N)=O)nn3CCO)CC4)c2)CC1` [onvansertib, 1-(2-hydroxyethyl)-8-{[5-(4-methylpiperazin-1-yl)-2-(trifluoromethoxy)phenyl]amino}-4,5-dihydro-1H-pyrazolo[4,3-h]quinazoline-3-carboxamide]: at PLK1, the “specificity for PLK1 among a panel of 296 kinases” value is reported as “high specificity”. For the same molecule, the “inhibition of cell proliferation” value with AML cell lines is reported as “inhibited cell proliferation at nanomolar concentrations”. In addition, the tumor growth entry with xenograft models of AML is reported as “inhibited”. Further, the “effect on cytarabine antitumor activity” value in data set [1] is “significantly increased cytarabine antitumor activity”. Besides, the cell-cycle effect entry in data set [2] (cancer cell lines) is “mitotic cell-cycle arrest followed by apoptosis”. Further, the “potency in proliferation assays” value in [2] (large number of cell lines) is recorded as “low nanomolar activity”. For the same molecule, the tumor regression result in data set [3] was “enhanced tumor regression”. Besides, the oral bioavailability result in data set [4] is recorded as “good oral bioavailability”. Besides, the primary dose-limiting toxicities entry (patients with advanced/metastatic solid tumors) is “neutropenia and thrombocytopenia”. Moreover, the “time to recovery from hematologic toxicities” value (reversible) is no more than 3 weeks.
Turning to `CC[C@@H]1C(=O)N(C)c2cnc(Nc3ccc(C(=O)N[C@H]4CC[C@H](N5CCN(CC6CC6)CC5)CC4)cc3OC)nc2N1C(C)C` [volasertib], the OS result in the data set with AML [5] is reported as “significant increase in OS”. Further, in the data set on AML [6], the “benefit of the combination” value is reported as “no benefit” and the “risk of severe infections” value was “increased risk of severe infections”.
For the molecule “bevacizumab: anti-angiogenics (angiogenesis inhibitor), Avastin”, the mOS in data set [7] (setting [8]) is 13.9 months; in data set [7] (patients with prior bev), 12.5 months. Also, the mPFS is given as 6.9 months in [7] (setting [8]) and 6.7 months in data set [7] (patients with prior bev).
